Measurements published in PubChem BioAssay (NCI).
Where “and” joins values, the source holds several entries; their conditions need not be identical. Identical values can stand only once.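 Dose response: 5 concentrations. Exposure: 48 h. Format: 96-well plates. Endpoint: linear interpolation; highest concentration if not reached. At the GI50, growth is halved. TGI: total growth inhibition.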

System: A549 NSCLC
Experiment: inhibition of tumour cell growth, NCI panel, 48 h

First: O=C(NNc1ccccc1)C(=O)NNc1ccccc1
Second: Nc1c(C(=O)c2ccccc2)cnn1-c1ccc(F)cc1
The GI50 of the first is lower: 3.53 µM for the first, greater than 25 µM for the second.

First: COC(=O)c1ccc(-c2c(C#N)[n+](=O)c3cc(Cl)c(Cl)cc3n2[O-])cc1
Second: CCOC(=O)c1c(-c2ccc(OC)cc2)c(C#N)c2c(C#N)c(N)nn2c1N
The GI50 of the first is 9.4-fold higher: 47.4 µM for the first, 5.06 µM for the second.

Compared with C#Cc1nc(Nc2cc(C)[nH]n2)c2ccccc2n1, COC(=O)C1=CN(CC2=CC(=O)C(C)=CC2=O)C=C(C(=O)OC)C1c1cccc(OC)c1 is 64-fold higher in GI50: 0.394 µM for the first, 25.1 µM for the second.

Compared with C/C(=N\NC(=S)N1CCCCCC1)c1ccccn1, COc1ccc(Cn2c(N)c(S(=O)(=O)c3ccc(Cl)cc3)c3nc(C#N)c(C#N)nc32)cc1 is higher in GI50: less than 0.0188 µM for the first, 18.2 µM for the second.

O=C(NNc1ccccc1)C(=O)NNc1ccccc1 and Nc1c(C(=O)c2ccccc2)cnn1-c1ccc(F)cc1 cannot be ordered by TGI: greater than 100 µM for the first, greater than 25 µM for the second.

COC(=O)c1ccc(-c2c(C#N)[n+](=O)c3cc(Cl)c(Cl)cc3n2[O-])cc1 and CCOC(=O)c1c(-c2ccc(OC)cc2)c(C#N)c2c(C#N)c(N)nn2c1N cannot be ordered by TGI: greater than 100 µM for the first, greater than 100 µM for the second.

First: C#Cc1nc(Nc2cc(C)[nH]n2)c2ccccc2n1
Second: COc1cc2c3c(c1OC)-c1cc4c(cc1CC3(C#N)N(C(=O)c1ccccc1)CC2)OCO4 (stereo not drawn)
The TGI of the first is lower: 2.24 µM for the first, greater than 100 µM for the second.

CC(C)=CCc1cc2c(cc1O)OC[C@H]1c3cc4c(cc3O[C@@H]21)OCO4 and COC(=O)C1=CN(CC2=CC(=O)C(C)=CC2=O)C=C(C(=O)OC)C1c1cccc(OC)c1 cannot be ordered by TGI: greater than 100 µM for the first, greater than 67.2 µM for the second.

Work on COc1ccc(Cn2c(N)c(S(=O)(=O)c3ccc(Cl)cc3)c3nc(C#N)c(C#N)nc32)cc1 yielded a TGI greater than 50 µM.

C/C(=N\NC(=S)N1CCCCCC1)c1ccccn1 was tested, and the TGI was 6.46 µM and 2.49 µM.

System: ACHN renal
Experiment: inhibition of tumour cell growth, NCI panel, 48 h

Going from O=C(NNc1ccccc1)C(=O)NNc1ccccc1 to Nc1c(C(=O)c2ccccc2)cnn1-c1ccc(F)cc1, the GI50 rises from 2.03 µM to greater than 25 µM.

Going from COC(=O)c1ccc(-c2c(C#N)[n+](=O)c3cc(Cl)c(Cl)cc3n2[O-])cc1 to CCOC(=O)c1c(-c2ccc(OC)cc2)c(C#N)c2c(C#N)c(N)nn2c1N, the GI50 falls from 17.2 µM to 4.02 µM (4.3-fold).

Going from C#Cc1nc(Nc2cc(C)[nH]n2)c2ccccc2n1 to COC(=O)C1=CN(CC2=CC(=O)C(C)=CC2=O)C=C(C(=O)OC)C1c1cccc(OC)c1, the GI50 rises from 0.257 µM to 2.78 µM (11-fold).

In the case of COc1ccc(Cn2c(N)c(S(=O)(=O)c3ccc(Cl)cc3)c3nc(C#N)c(C#N)nc32)cc1, the GI50 is reported as 6.22 µM.

O=C(NNc1ccccc1)C(=O)NNc1ccccc1 and Nc1c(C(=O)c2ccccc2)cnn1-c1ccc(F)cc1 cannot be ordered by TGI: greater than 100 µM for the first, greater than 25 µM for the second.

COC(=O)c1ccc(-c2c(C#N)[n+](=O)c3cc(Cl)c(Cl)cc3n2[O-])cc1 and CCOC(=O)c1c(-c2ccc(OC)cc2)c(C#N)c2c(C#N)c(N)nn2c1N are within 1.5-fold of each other in TGI: 35.2 µM for the first, 48.5 µM for the second.

First: C#Cc1nc(Nc2cc(C)[nH]n2)c2ccccc2n1
Second: COc1cc2c3c(c1OC)-c1cc4c(cc1CC3(C#N)N(C(=O)c1ccccc1)CC2)OCO4 (stereo not drawn)
The TGI of the first is lower: 1.71 µM for the first, greater than 97.2 µM for the second.

Going from CC(C)=CCc1cc2c(cc1O)OC[C@H]1c3cc4c(cc3O[C@@H]21)OCO4 to COC(=O)C1=CN(CC2=CC(=O)C(C)=CC2=O)C=C(C(=O)OC)C1c1cccc(OC)c1, the TGI falls from greater than 100 µM to 7.99 µM.

In the case of COc1ccc(Cn2c(N)c(S(=O)(=O)c3ccc(Cl)cc3)c3nc(C#N)c(C#N)nc32)cc1, the TGI is reported as greater than 50 µM.

In the case of C/C(=N\NC(=S)N1CCCCCC1)c1ccccn1, the TGI is reported as 5.45 µM and 2.73 µM.

System: BT-549 breast
Experiment: inhibition of tumour cell growth, NCI panel, 48 h

O=C(NNc1ccccc1)C(=O)NNc1ccccc1 and Nc1c(C(=O)c2ccccc2)cnn1-c1ccc(F)cc1 cannot be ordered by GI50: 42.4 µM for the first, greater than 25 µM for the second.

First: COC(=O)c1ccc(-c2c(C#N)[n+](=O)c3cc(Cl)c(Cl)cc3n2[O-])cc1
Second: CCOC(=O)c1c(-c2ccc(OC)cc2)c(C#N)c2c(C#N)c(N)nn2c1N
The GI50 of the first is 6.3-fold higher: 16.8 µM for the first, 2.65 µM for the second.

Going from C#Cc1nc(Nc2cc(C)[nH]n2)c2ccccc2n1 to COC(=O)C1=CN(CC2=CC(=O)C(C)=CC2=O)C=C(C(=O)OC)C1c1cccc(OC)c1, the GI50 rises from 0.233 µM to 8.61 µM (37-fold).

COc1ccc(Cn2c(N)c(S(=O)(=O)c3ccc(Cl)cc3)c3nc(C#N)c(C#N)nc32)cc1 showed a GI50 of 34.3 µM.

O=C(NNc1ccccc1)C(=O)NNc1ccccc1 and Nc1c(C(=O)c2ccccc2)cnn1-c1ccc(F)cc1 cannot be ordered by TGI: greater than 100 µM for the first, greater than 25 µM for the second.

COC(=O)c1ccc(-c2c(C#N)[n+](=O)c3cc(Cl)c(Cl)cc3n2[O-])cc1 and CCOC(=O)c1c(-c2ccc(OC)cc2)c(C#N)c2c(C#N)c(N)nn2c1N are within 1.5-fold of each other in TGI: 34 µM for the first, 28.1 µM for the second.

First: C#Cc1nc(Nc2cc(C)[nH]n2)c2ccccc2n1
Second: COc1cc2c3c(c1OC)-c1cc4c(cc1CC3(C#N)N(C(=O)c1ccccc1)CC2)OCO4 (stereo not drawn)
The TGI of the first is lower: 0.475 µM for the first, greater than 100 µM for the second.

Going from C/C(=N\NC(=S)N1CCCCCC1)c1ccccn1 to CC(C)=CCc1cc2c(cc1O)OC[C@H]1c3cc4c(cc3O[C@@H]21)OCO4, the TGI rises from 1.76 µM to 95.3 µM (54-fold).

Compared with COC(=O)C1=CN(CC2=CC(=O)C(C)=CC2=O)C=C(C(=O)OC)C1c1cccc(OC)c1, COc1ccc(Cn2c(N)c(S(=O)(=O)c3ccc(Cl)cc3)c3nc(C#N)c(C#N)nc32)cc1 is higher in TGI: 36.6 µM for the first, greater than 50 µM for the second.

System: CAKI-1 renal
Experiment: inhibition of tumour cell growth, NCI panel, 48 h

Compared with O=C(NNc1ccccc1)C(=O)NNc1ccccc1, Nc1c(C(=O)c2ccccc2)cnn1-c1ccc(F)cc1 is higher in GI50: 0.795 µM for the first, greater than 25 µM for the second.

Going from COC(=O)c1ccc(-c2c(C#N)[n+](=O)c3cc(Cl)c(Cl)cc3n2[O-])cc1 to CCOC(=O)c1c(-c2ccc(OC)cc2)c(C#N)c2c(C#N)c(N)nn2c1N, the GI50 falls from 18.9 µM to 2.95 µM (6.4-fold).

Compared with C#Cc1nc(Nc2cc(C)[nH]n2)c2ccccc2n1, COC(=O)C1=CN(CC2=CC(=O)C(C)=CC2=O)C=C(C(=O)OC)C1c1cccc(OC)c1 is 5.5-fold higher in GI50: 0.442 µM for the first, 2.45 µM for the second.

Compared with C/C(=N\NC(=S)N1CCCCCC1)c1ccccn1, COc1ccc(Cn2c(N)c(S(=O)(=O)c3ccc(Cl)cc3)c3nc(C#N)c(C#N)nc32)cc1 is higher in GI50: less than 0.0393 µM for the first, 21.9 µM for the second.

O=C(NNc1ccccc1)C(=O)NNc1ccccc1 and Nc1c(C(=O)c2ccccc2)cnn1-c1ccc(F)cc1 cannot be ordered by TGI: greater than 100 µM for the first, greater than 25 µM for the second.

Compared with COC(=O)c1ccc(-c2c(C#N)[n+](=O)c3cc(Cl)c(Cl)cc3n2[O-])cc1, CCOC(=O)c1c(-c2ccc(OC)cc2)c(C#N)c2c(C#N)c(N)nn2c1N is higher in TGI: 35.4 µM for the first, greater than 100 µM for the second.

First: C#Cc1nc(Nc2cc(C)[nH]n2)c2ccccc2n1
Second: COc1cc2c3c(c1OC)-c1cc4c(cc1CC3(C#N)N(C(=O)c1ccccc1)CC2)OCO4 (stereo not drawn)
The TGI of the first is lower: 2.02 µM for the first, greater than 81 µM for the second.

Compared with CC(C)=CCc1cc2c(cc1O)OC[C@H]1c3cc4c(cc3O[C@@H]21)OCO4, COC(=O)C1=CN(CC2=CC(=O)C(C)=CC2=O)C=C(C(=O)OC)C1c1cccc(OC)c1 is lower in TGI: greater than 100 µM for the first, 5.61 µM for the second.

COc1ccc(Cn2c(N)c(S(=O)(=O)c3ccc(Cl)cc3)c3nc(C#N)c(C#N)nc32)cc1 gave a TGI greater than 50 µM.

C/C(=N\NC(=S)N1CCCCCC1)c1ccccn1 was tested, and the TGI was 5.45 µM and 10.4 µM.

System: MDA-MB-231 breast
Experiment: inhibition of tumour cell growth, NCI panel, 48 h

First: O=C(NNc1ccccc1)C(=O)NNc1ccccc1
Second: Nc1c(C(=O)c2ccccc2)cnn1-c1ccc(F)cc1
The GI50 of the first is lower: 24.1 µM for the first, greater than 25 µM for the second.

Compared with COC(=O)c1ccc(-c2c(C#N)[n+](=O)c3cc(Cl)c(Cl)cc3n2[O-])cc1, CCOC(=O)c1c(-c2ccc(OC)cc2)c(C#N)c2c(C#N)c(N)nn2c1N is 4-fold lower in GI50: 14.4 µM for the first, 3.63 µM for the second.

First: C#Cc1nc(Nc2cc(C)[nH]n2)c2ccccc2n1
Second: COC(=O)C1=CN(CC2=CC(=O)C(C)=CC2=O)C=C(C(=O)OC)C1c1cccc(OC)c1
The GI50 of the first is 66-fold lower: 0.203 µM for the first, 13.4 µM for the second.

First: C/C(=N\NC(=S)N1CCCCCC1)c1ccccn1
Second: COc1ccc(Cn2c(N)c(S(=O)(=O)c3ccc(Cl)cc3)c3nc(C#N)c(C#N)nc32)cc1
The GI50 of the first is 21-fold lower: 0.147 µM for the first, 3.1 µM for the second.

O=C(NNc1ccccc1)C(=O)NNc1ccccc1 and Nc1c(C(=O)c2ccccc2)cnn1-c1ccc(F)cc1 cannot be ordered by TGI: greater than 100 µM for the first, greater than 25 µM for the second.

COC(=O)c1ccc(-c2c(C#N)[n+](=O)c3cc(Cl)c(Cl)cc3n2[O-])cc1 and CCOC(=O)c1c(-c2ccc(OC)cc2)c(C#N)c2c(C#N)c(N)nn2c1N are within 1.5-fold of each other in TGI: 33.5 µM for the first, 23.2 µM for the second.

First: C#Cc1nc(Nc2cc(C)[nH]n2)c2ccccc2n1
Second: COc1cc2c3c(c1OC)-c1cc4c(cc1CC3(C#N)N(C(=O)c1ccccc1)CC2)OCO4 (stereo not drawn)
The TGI of the first is lower: 0.424 µM for the first, greater than 100 µM for the second.

Going from CC(C)=CCc1cc2c(cc1O)OC[C@H]1c3cc4c(cc3O[C@@H]21)OCO4 to COC(=O)C1=CN(CC2=CC(=O)C(C)=CC2=O)C=C(C(=O)OC)C1c1cccc(OC)c1, the TGI falls from greater than 100 µM to 31.2 µM.

COc1ccc(Cn2c(N)c(S(=O)(=O)c3ccc(Cl)cc3)c3nc(C#N)c(C#N)nc32)cc1 showed a TGI of 20.9 µM.

In the case of C/C(=N\NC(=S)N1CCCCCC1)c1ccccn1, the TGI is reported as 5.31 µM and 9.96 µM.
